Experimental data as given in ChEMBL document CHEMBL1156230, “Identification of phenylsulfone-substituted quinoxaline (WYE-672) as a tissue selective liver X-receptor (LXR) agonist” (J Med Chem, 2010).
The source made the active and inactive calls. The rule behind the calls is not given here.

Experiments:
[1] = target: T1, Peroxisome proliferator-activated receptor gamma (Homo sapiens) (UniProt P37231); experiment: Binding affinity to PPARgamma
T1 sequence (whole entry): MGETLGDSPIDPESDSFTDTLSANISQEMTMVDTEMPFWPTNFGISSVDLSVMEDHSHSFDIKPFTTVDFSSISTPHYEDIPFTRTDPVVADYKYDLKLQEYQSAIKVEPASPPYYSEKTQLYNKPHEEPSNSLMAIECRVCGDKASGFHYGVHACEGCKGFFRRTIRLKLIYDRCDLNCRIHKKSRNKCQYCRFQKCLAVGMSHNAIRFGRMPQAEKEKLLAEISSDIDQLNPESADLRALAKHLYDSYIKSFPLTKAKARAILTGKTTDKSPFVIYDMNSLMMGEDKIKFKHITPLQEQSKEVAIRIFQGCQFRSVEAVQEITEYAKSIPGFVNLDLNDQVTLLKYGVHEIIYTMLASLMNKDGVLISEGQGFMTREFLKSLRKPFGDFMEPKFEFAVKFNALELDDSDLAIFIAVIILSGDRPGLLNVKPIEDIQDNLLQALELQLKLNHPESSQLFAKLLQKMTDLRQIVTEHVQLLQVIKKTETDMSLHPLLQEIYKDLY

THP-1 = experiment: Induction of [3H]cholesterol efflux in human THP1 cells
Mus musculus [2] = experiment: Antiatherosclerotic activity against high fat/high cholesterol fed LDLR-deficient mouse assessed as reduction in aortic arch lesion burden at 0.6 mg/kg/day administered with diet relative to control; format: functional, Pharyngeal arch artery; design: scale not given: the % may be the effect or the level left
Mus musculus [3] = experiment: Antiatherosclerotic activity against high fat/high cholesterol fed LDLR-deficient mouse assessed as reduction in aortic arch lesion burden at 3 mg/kg/day administered with diet relative to control; format: functional, Pharyngeal arch artery; design: scale not given: the % may be the effect or the level left
[4] = target: T2, Mineralocorticoid receptor (Homo sapiens) (UniProt P08235); experiment: Binding affinity to mineralocorticoid receptor
T2 sequence (whole entry): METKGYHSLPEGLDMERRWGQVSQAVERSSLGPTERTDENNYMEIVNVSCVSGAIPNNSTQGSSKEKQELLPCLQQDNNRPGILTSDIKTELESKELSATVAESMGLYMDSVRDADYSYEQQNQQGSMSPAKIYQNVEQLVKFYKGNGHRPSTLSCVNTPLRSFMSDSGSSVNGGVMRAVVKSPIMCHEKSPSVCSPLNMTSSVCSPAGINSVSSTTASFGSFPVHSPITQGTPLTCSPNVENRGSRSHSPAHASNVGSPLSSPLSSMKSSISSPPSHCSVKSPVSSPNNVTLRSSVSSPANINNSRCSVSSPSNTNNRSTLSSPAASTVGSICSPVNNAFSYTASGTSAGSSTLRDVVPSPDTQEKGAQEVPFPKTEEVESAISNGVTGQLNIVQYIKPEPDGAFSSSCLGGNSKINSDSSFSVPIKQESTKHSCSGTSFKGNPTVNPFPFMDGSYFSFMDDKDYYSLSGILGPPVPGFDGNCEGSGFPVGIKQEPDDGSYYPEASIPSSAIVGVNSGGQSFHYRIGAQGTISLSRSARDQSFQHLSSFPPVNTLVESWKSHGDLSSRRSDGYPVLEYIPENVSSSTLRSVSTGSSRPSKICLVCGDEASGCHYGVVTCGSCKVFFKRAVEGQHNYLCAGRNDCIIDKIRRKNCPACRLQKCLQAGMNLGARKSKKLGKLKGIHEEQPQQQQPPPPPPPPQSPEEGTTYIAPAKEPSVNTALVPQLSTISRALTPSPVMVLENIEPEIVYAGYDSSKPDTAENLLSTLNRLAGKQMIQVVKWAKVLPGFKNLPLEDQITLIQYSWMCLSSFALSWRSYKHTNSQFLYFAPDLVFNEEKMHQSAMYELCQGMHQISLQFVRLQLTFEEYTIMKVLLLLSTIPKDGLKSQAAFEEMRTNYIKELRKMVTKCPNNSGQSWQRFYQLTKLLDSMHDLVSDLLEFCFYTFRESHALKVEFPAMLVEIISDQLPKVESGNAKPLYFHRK

Question: Which Activity [1] does the source give for Cc1nc2c(C(F)(F)F)cccc2nc1-c1ccc(-c2cccc(S(C)(=O)=O)c2)cc1 here?
Answer: Its Activity is “inactive”.

Question: What about the Activity (THP-1) of the same molecule?
Answer: The Activity was “Dose-dependent effect”.

Question: And the Activity (Mus musculus [2])?
Answer: Its Activity is 20%.

Question: What about the Activity (Mus musculus [3]) of the same molecule?
Answer: The Activity was 51%.

Question: And the Activity [4]?
Answer: The Activity was “inactive”.
